Each structure is given as a SMILES string. Entries after “also recorded” stand apart in the source; their conditions may differ. Counter-ions that a name gives are not always drawn. Residues, ends and D or L forms follow the SMILES beside them.

For one data set, the system named is AU-565 cells. In kind it is cell-based, human. Conditions: 24 h. The procedure: (§1) MDA-MB-468, MDA-MB-231, BT-474, AU-565, HB2, and MCF-10A cells were procured from American Type Culture Collection (ATCC) and validated for lack of mycoplasma contamination (MycoAlert; Lonza, Basel, Switzerland) and identity (short tandem repeat profiling; Source Bioscience, Nottingham, UK). Cells (except MCF-10A) were cultured in Dulbecco’s modified Eagle medium (DMEM) supplemented with 10% (v/v) fetal calf serum (FCS) and 100 units/mL penicillin–streptomycin (Thermo Scientific; Waltham, MA, USA). MCF-10A was cultured in DMEM supplemented with 5% horse serum, 0.1 μg/mL cholera toxin, 0.5 μg/mL hydrocortisone, 0.02 μg/mL epidermal growth factor, and 100 units/mL penicillin–streptomycin (Thermo Scientific, Waltham, MA, USA). Cells were grown at 37 °C in a humidified incubator with 5% CO2. Cells were maintained and experiments were performed under conditions ensuring cell densities that supported exponential growth.
(§2) Cells were seeded in 96-well plates at 1 × 10^4 cells/well in complete growth media and incubated for 18 h. Cells were then treated with peptides (0–250 μM) for up to 24 h. Cells were then incubated with 0.5 mg/mL MTT dissolved in PBS for 3 h. Formazan crystals were dissolved using […] of isopropanol and absorbance was measured at 570 nm on a microplate spectrophotometer (Biotech Instruments, USA). For spheroids assays, MDA-MB-468 or HB2 cells (1000 cells/well) were seeded in 250 μL of DMEM supplemented with 10% FCS and 2.5% Matrigel (Corning, New York, USA) in low-adherent, round-bottom 96-well plates (Corning, New York, USA). The plates were centrifuged at 360g for 10 min and subsequently incubated for 48 h to allow spheroid formation. MDA-MB-468 or HB2 spheroids were then treated with peptides at the IC50 doses determined for MDA-MB-468 cells for 24 h. Cellular viability within spheroids was assessed by staining with Hoechst 33342 (5 μg/mL) for 30 min, followed by propidium iodide (PI) (1.5 μg/mL) for 10 min. Red fluorescence indicated nonviable cells stained with PI, whereas blue fluorescence represented both viable and nonviable cells stained with Hoechst 33342. The survival of spheroids was determined by calculating ratios of blue/red fluorescence using ImageJ software.
(§3) A panel of human breast epithelial cell lines was established, including two lines from a nontransformed origin (MCF-10A; HB2) and four cancer lines (BT-474; AU-565; MDA-MB-231; MDA-MB-468). Cells were treated with different doses of MP1 or the modified peptides. Survival was assessed relative to untreated using MTT assays (Figures and S2) and IC50 doses were determined for each peptide in each cell line.

A further data set concerns BT-474 cells. It is filed as cell-based, human. Conditions: 24 h. Here is the method:
as §1, §2, §3

The test system of another data set is HB2 cells. In kind it is cell-based, human. The note with it: 24 h. The procedure:
as §1, §2, §3

Another data set deals with MCF-10A cells. In kind it is cell-based, human. The note with it: 24 h. The procedure:
as §1, §2, §3

The subject of the next data set is MDA-MB-231 cells. It is filed as cell-based, human. Conditions: 24 h. Here is the method:
as §1, §2, §3

The subject of data set [1] is MDA-MB-468 cells. It is filed as cell-based, human. Conditions: 24 h. The procedure:
as §1, §2, §3

For the next data set, the system named is red blood cells. The experiment in a line: Ex vivo hemolysis assay. Conditions: mouse RBCs 1:50 in PBS, 1 h, 37 °C, absorbance 540 nm. In kind it is cell-based. Here is the method: Blood was collected from five 10-week-old male C57BL/6 mice via cardiac puncture following cervical dislocation, using pediatric blood collection tubes containing K3 EDTA (Greiner; Slušovice, Czechia). Blood was centrifuged (500g; 5 min; 4 °C) and plasma was removed. Red blood cells (RBCs) were resuspended to their original volume using 150 mM NaCl. RBCs were repeatedly washed and diluted to 1:50 in PBS. For a positive control, 1% (v/v) Triton X-100 was used (100% lysis), while cells incubated in PBS served as a negative control (0% lysis). 200 μL of RBCs in triplicate was treated with peptides and incubated on an orbital shaker (100 rpm; 1 h; 37 °C). Samples were centrifuged (500g; 5 min) and supernatants, containing lysed RBCs, were collected. Hemolysis was quantified by measuring absorbance at 540 nm.
Our next aim was to assess whether our various peptides had potential as anticancer therapeutics using an in vivo model. To our knowledge, MP1 or MP1-derived peptides have not previously been used experimentally in vivo, therefore we first performed an in vitro hemolysis assay to aid selection of peptides that could be suitable for intravenous delivery. Red blood cells were isolated from mouse blood and treated with three different doses of MP1 wildtype or our targeted peptides (EGFR and EGFR-MMP versions of both MP1 and D2K) and hemolysis was measured (Figure A).

The subject of data set [2] is MDA-MB-468 cells. As to the kind of experiment: MTT survival with or without MMP-2 inhibitor, MDA-MB-468. It is filed as cell-based, human. Conditions: MDA-MB-468, MTT, 24 h; 20 μM EGFR-MP1, 30 μM EGFR-MMP-MP1 or 2 μM chlorhexidine dihydrochloride alone. The procedure:
Cells were seeded in 6-well plates at 3 × 10^5 in complete medium and allowed to grow for 48 h. 500 μL of cell media from each cell line was collected and centrifuged at 5000 rpm for 15 min at 4 °C. Supernatants were collected and 50 μL of each was added in 3 replicate wells of a monoclonal mouse antihuman MMP-2 antibody precoated 96-well ELISA plate (Human Total MMP-2 kit; BioLegend, USA). It was then mixed with the respective assay buffers as per the kit instruction. The plate was then sealed and incubated at room temperature (2 h). The supernatant sample was then discarded and the wells were washed with assay buffer several times. Next, 100 μL of Human Total MMP-2 Detection Antibody solution was added into the wells and incubated (1 h). 100 μL of Avidin-HRP solution was then added for 1 h, and finally, after washing, 100 μL of substrate solution was added. Absorbance was measured at 450 nm (Biotech Instruments, USA). The final MMP-2 concentration was calculated against a standard curve. […]
We were also interested to test formally whether the efficacy of EGFR-MMP-MP1 was dependent on MMP-2 activity. Therefore, we treated MDA-MB-468 cells with EGFR-MMP-MP1 or with EGFR-MP1, in the presence or absence of the MMP-2 inhibitor chlorhexidine dihydrochloride, and assessed cell survival relative to untreated (Figure C,D).

For orientation: IC50 means the concentration that gives 50% inhibition. Low values mean greater potency, high ones weaker potency. In the case of `CC[C@H](C)[C@H](N)C(=O)N[C@@H](CC(=O)O)C(=O)N[C@@H](Cc1c[nH]c2ccccc12)C(=O)N[C@@H](CCCCN)C(=O)N[C@@H](CCCCN)C(=O)N[C@@H](CC(C)C)C(=O)N[C@@H](CC(C)C)C(=O)N[C@@H](CC(=O)O)C(=O)N[C@@H](C)C(=O)N[C@@H](C)C(=O)N[C@@H](CCCCN)C(=O)N[C@@H](CCC(N)=O)C(=O)N[C@H](C(=O)N[C@@H](CC(C)C)C(=O)O)[C@@H](C)CC` [MP1, reference compound] (H-IDWKKLLDAAKQIL-OH), the half-maximal inhibitory concentration (IC50) in the data set on AU-565 cells was determined as 18.7 µM; in the data set on BT-474 cells, 50.6 µM; in the data set on HB2 cells it was 31.5 µM; in the data set with MCF-10A cells, 111 µM; in the data set on MDA-MB-231 cells, 35 µM; in the data set with MDA-MB-468 cells [1], 23.4 µM. Also, in the data set on red blood cells (three doses), the “hemolysis (in words)” value is reported as “unacceptably high levels of hemolysis at all doses; also recorded: unacceptably high hemolytic activity”.
Consider `[H]/N=C(\N/C(=N/[H])NCCCCCCNC(=N)NC(=N)Nc1ccc(Cl)cc1)Nc1ccc(Cl)cc1` [chlorhexidine dihydrochloride], for which, in the data set with MDA-MB-468 cells [2], the “cell survival relative to untreated, single agent” value is “small and nonsignificant decrease”.
`CC[C@H](C)[C@H](N)C(=O)N[C@@H](CCCCN)C(=O)N[C@@H](Cc1c[nH]c2ccccc12)C(=O)N[C@@H](CCCCN)C(=O)N[C@@H](CCCCN)C(=O)N[C@@H](CC(C)C)C(=O)N[C@@H](CC(C)C)C(=O)N[C@@H](CC(=O)O)C(=O)N[C@@H](C)C(=O)N[C@@H](C)C(=O)N[C@@H](CCCCN)C(=O)N[C@@H](CCC(N)=O)C(=O)N[C@H](C(=O)N[C@@H](CC(C)C)C(=O)NCC(=O)N1CCC[C@H]1C(=O)N[C@@H](CC(C)C)C(=O)NCC(=O)N[C@H](C(=O)N[C@@H](C)C(=O)NCC(=O)N[C@@H](CCC(N)=O)C(=O)N[C@@H](Cc1ccc(O)cc1)C(=O)N[C@@H](Cc1c[nH]cn1)C(=O)N[C@@H](Cc1c[nH]c2ccccc12)C(=O)N[C@@H](Cc1ccc(O)cc1)C(=O)NCC(=O)N[C@@H](Cc1ccc(O)cc1)C(=O)N[C@H](C(=O)N1CCC[C@H]1C(=O)N[C@@H](CCC(=O)O)C(=O)N[C@@H](CC(N)=O)C(=O)N[C@H](C(=O)N[C@H](C(=O)O)[C@@H](C)CC)C(C)C)[C@@H](C)O)[C@@H](C)CC)[C@@H](C)CC` [EGFR-MMP-D2K] (H-IKWKKLLDAAKQILGPLGIAGQYHWYGYTPENVI-OH): the concentration for half-maximal inhibition (IC50) in the data set with HB2 cells was 79.8 µM; with MDA-MB-468 cells [1], 32.1 µM. In addition, the hemolysis with red blood cells (50 μM peptide, 1% Triton X-100 = 100%) came to 5.9%.

The values are drawn from article PMC13147323, “EGFR-Targeted and MMP-Activated Membranolytic Peptides Kill Cancer Cells Specifically In Vitro and Reduce Tumor Growth In Vivo” (Molecular Pharmaceutics, 2026).
